Common to all, as to assay type: in vivo
In assay [1] the test system is R-strain of Pseudocercosporella herpotrichoides. Kind of assay: Pseudocercosporella herpotrichoides test; R-strain (wheat)/protective. Conditions: protective, application rate 250 g/ha, evaluation 21 days after inoculation. The procedure: Pseudocercosporella herpotrichoides Test; R-Strain (Wheat)/Protective
(§1) To produce a suitable preparation of active compound, 1 part by weight of active compound is mixed with the stated amounts of solvent and emulsifier and the concentrate is diluted with water to the desired concentration.
To test for protective activity, young plants are sprayed with the preparation of active compound at stated application rates.
After the spray-coating has dried on, the plants are inoculated at the base of the stem with spores of the R-strain of Pseudocercosporella herotrichoides.
The plants are placed in a greenhouse at a temperature of approximately 10° C. and a relative atmospheric humidity of approximately 80%.
Evaluation is carried out 21 days after the inoculation. 0% means an efficacy which corresponds to that of the control, while an efficacy of 100% means that no infection is observed.

In assay [2] the test system is caterpillars of the owlett moth (Spodoptera frugiperda). As to the kind of experiment: Spodoptera test. Conditions: cabbage leaves dipped, active compound concentration 0.1 %. As to the method:
(§2) To produce a suitable preparation of active compound, 1 part by weight of active compound is mixed with the stated amount of solvent and the stated amount of emulsifier, and the concentrate is diluted with water to the desired concentration.
Cabbage leaves (Brassica oleracea) are treated by being dipped into the preparation of active compound of the desired concentration and are populated with caterpillars of the owlett moth (Spodoptera frugiperda) while the leaves are still moist.
After the desired period of time, the kill in % is determined. 100% means that all the caterpillars have been killed; 0% means that none of the caterpillars have been killed.

Another assay has as its system Venturia inaequalis. Kind of assay: Venturia test (apple)/protective (Example K, application rate). The settings on record: protective, application rate 100 g/ha, evaluation 12 days after inoculation. As to the method:
Venturia Test (Apple)/Protective
(§3) To produce a suitable preparation of active compound, 1 part by weight of active compound is mixed with the stated amounts of solvent and emulsifier, and the concentrate is diluted with water to the desired concentration.
To test for protective activity, young plants are sprayed with the preparation of active compound at the stated application rate. After the spray-coating has dried on, the plants are inoculated with an aqueous Conidia suspension of the causative organism of apple scab Venturia inaequalis and then remain in an incubation cabin at approximately 20° C. and 100% relative atmospheric humidity for 1 day.
The plants are subsequently placed in a greenhouse at approximately 21° C. and a relative atmospheric humidity of approximately 90%.
Evaluation is carried out 12 days after the inoculation. 0% means an efficacy which corresponds to that of the control, while an efficacy of 100% means that no infection is observed.

A further assay deals with Plasmopara viticola. As to the kind of experiment: Plasmopara test (grape vines)/protective. Conditions: protective, application rate 100 g/ha, evaluation 6 days after inoculation. As to the method:
Plasmopara Test (Grape Vines)/Protective
as §1
To test for protective activity, young plants are sprayed with the preparation of active compound at the stated application rate. After the spray-coating has dried on, the plants are inoculated with an aqueous spore suspension of Plasmopara viticola and then remain in an incubation cabin at approximately 20° C. and 100% relative atmospheric humidity for 1 day. The plants are subsequently placed in a greenhouse at approximately 21° C. and approximately 90% relative atmospheric humidity for 5 days. The plants are then moistened and placed in an incubation cabin for 1 day.
Evaluation is carried out 6 days after the inoculation. 0% means an efficacy which corresponds to that of the control, while an efficacy of 100% means that no infection is observed.

For another assay, the system named is Pyrenophora teres. Kind of assay: Pyrenophora teres test (barley)/protective. Conditions: protective, application rate 125 g/ha, evaluation 7 days after inoculation. As to the method: Pyrenophora teres Test (Barley)/Protective
as §3
To test for protective activity, young plants are sprayed with the preparation of active compound at the stated application rate.
After the spray-coating has dried on, the plants are sprayed with a conidia suspension of Pyrenophora teres.
The plants remain in an incubation cabin at 20° C. and 100% relative atmospheric humidity for 48 hours.
The plants are placed in a greenhouse at a temperature of approximately 20° C. in a relative atmospheric humidity of approximately 80%.
Evaluation is carried out 7 days after the inoculation. 0% means an efficacy which corresponds to that of the untreated control, while an efficacy of 100% means that no infection is observed.

Assay [3] concerns peach aphids (Myzus persicae). As to the kind of experiment: Myzus test. Conditions: infested cabbage leaves dipped, active compound concentration 0.1 %. The procedure:
as §2
Cabbage leaves (Brassica oleracea) which are heavily infested by peach aphids (Myzus persicae) are treated by being dipped into the preparation of active compound of the desired concentration.
After the desired period of time, the kill in % is determined. 100% means that all the aphids have been killed, 0% means that none of the aphids have been killed.

Data on eight molecules can be found in patent publication US6716881B2, “Carbanilides used as pesticides” (Bayer Aktiengesellschaft, priority 1996, dated 2004).

`C/C(=N\OCc1ccccc1NC(=O)c1cn(C)nc1C)c1cccc(C(F)(F)F)c1` returned an Efficacy in % in assay [1] of 90%. With `Cc1ccc(OCc2ccccc2NC(=O)c2cn(C)nc2C)cc1`, the “Degree of kill in % after 7 d” value in assay [2] is 100%. Turning to `CC1=C(C(=O)Nc2ccccc2Oc2ccccc2)SCCO1`, in the assay with Venturia inaequalis, the Efficacy in % is 100%. Turning to `Cc1ccc(SCc2ccccc2NC(=O)c2ccccc2C(F)(F)F)cc1`, the Efficacy in % with Plasmopara viticola is recorded as 95%.

`CC1=C(C(=O)Nc2ccccc2CSc2ccccc2)SCCO1`: the Efficacy in % with Plasmopara viticola is listed as 90%.

On to `Cn1cc(C(=O)Nc2ccccc2C=Cc2ccccc2)c(C(F)F)n1` [drawing 528], for which the Efficacy in % with Pyrenophora teres was 83%. Regarding `Cc1ccc(SCc2ccccc2NC(=O)c2cn(C)nc2C(F)F)cc1` [drawing 529], the Efficacy in % with Pyrenophora teres worked out at 75%.

Consider `Cc1cccc(OCc2ccccc2NC(=O)c2cn(C)nc2C(F)(F)F)c1` [drawing 539], for which, in assay [3], the “Degree of kill in % after 7 d” value stood at 95%.
